A short description of data set [1]: Antioxidant activity assessed as DPPH radical scavenging activity by spectrophotometric assay. It counts as physicochemical. In general terms: The DPPH test is a chemical assay of radical scavenging.
In data set [2] the test system is A549. Description: Antiproliferative activity against human A549 cells at 30 ug/ml after 48 hrs by MTT assay. The note with it: a549, 48 h. The format is cell-based. On the technique in general: Tetrazolium assays rely on reduction of a dye to a coloured formazan, in cell work by metabolically active cells.
The test system of data set [3] is A-431. Kind of data set: Antiproliferative activity against human A431 cells at 3 ug/ml after 48 hrs by MTT assay. It counts as cell-based. The note with it: a-431, 48 h.
For data set [4], the system named is A549. Description: Antiproliferative activity against human A549 cells at 10 ug/ml after 48 hrs by MTT assay. It counts as cell-based. The following applies: a549, 48 h.
Data set [5] in a line: (§1) Cytotoxicity against human A549 cells assessed as growth inhibition after 48 hrs by MTT assay. The format is cell-based. The following applies: A549 cells.
Data set [6] has as its system A549. Described as §1. It counts as cell-based. The following applies: a549, 48 h.
The subject of data set [7] is Mycobacterium tuberculosis. Kind of data set: Antitubercular activity against Mycobacterium tuberculosis H37Ra ATCC 25177 by XTT Reduction Menadione Assay. The format is functional, organism-based.
Data set [8] has as its system Mycobacterium tuberculosis. Kind of data set: Antitubercular activity against Mycobacterium tuberculosis H37Ra ATCC 25177 at 30 ug/ml by XTT Reduction Menadione Assay. It counts as functional.
The subject of data set [9] is Mycobacterium tuberculosis. Description: Antitubercular activity against Mycobacterium tuberculosis H37Ra ATCC 25177 at 10 ug/ml by XTT Reduction Menadione Assay. The format is functional.
Data set [10] in a line: Cytotoxicity against human A431 cells assessed as growth inhibition after 48 hrs by MTT assay. It counts as cell-based, A-431.
The subject of data set [11] is A-431. Description: Antiproliferative activity against human A431 cells at 10 ug/ml after 48 hrs by MTT assay. The format is cell-based. The note with it: a-431, 48 h.
Data set [12] has as its system Mycobacterium tuberculosis. Description: Antitubercular activity against Mycobacterium tuberculosis H37Ra ATCC 25177 at 3 ug/ml by XTT Reduction Menadione Assay. It counts as functional.
The subject of data set [13] is A-431. Description: Antiproliferative activity against human A431 cells at 30 ug/ml after 48 hrs by MTT assay. It counts as cell-based. The note with it: a-431, 48 h.
The test system of data set [14] is HeLa. Description: Antiproliferative activity against human HeLa cells at 30 ug/ml after 72 hrs by MTT assay. It counts as cell-based.
Data set [15] in a line: (§2) Cytotoxicity against human HeLa cells assessed as growth inhibition after 72 hrs by MTT assay. The note with it: HeLa cells. It counts as cell-based.
In data set [16] the test system is HeLa. The data set is described as §2. It counts as cell-based. The note with it: hela, 72 h.
Data set [17] has as its system A549. Description: Antiproliferative activity against human A549 cells at 3 ug/ml after 48 hrs by MTT assay. It counts as cell-based. The following applies: a549, 48 h.
Data set [18] concerns HeLa. Description: Antiproliferative activity against human HeLa cells at 3 ug/ml after 72 hrs by MTT assay. It counts as cell-based.
For data set [19], the system named is HeLa. Kind of data set: Antiproliferative activity against human HeLa cells at 10 ug/ml after 72 hrs by MTT assay. It counts as cell-based.

≈ marks a conversion by molar mass, not a printed value. Bounds are passed on as bounds.

`O=C1CSc2ccccc2N1Cc1cn(-c2cccc([N+](=O)[O-])c2)nn1`: the IC50 (commonly the midpoint of a concentration-inhibition curve) in data set [1] is 47.11 µg/mL (≈ 128 µM); in [7], more than 30 µg/mL. Also, the Activity stood at 22.02% in data set [2]; 17.2% in data set [3]; 0.19% in data set [4]; 25.4% in [11]; 29.7% in data set [13]; 37.5% in data set [14]. For the same compound, the Activity was 12.32% in [17], 11.9% in data set [18] and 13.3% in data set [19]. Further, the GI50 at 48 h in data set [5] and in data set [10] was more than 30 µg/mL throughout. Moreover, the MIC in [6] and in data set [7] was more than 30 µg/mL each time. For the same compound, the inhibition (usually the drop in the measured response relative to a control, in per cent) at 30 µg/mL in [8] was 1.2%. Also, in data set [9], the inhibition at 10 µg/mL amounted to 8.7%. Besides, the inhibition at 3 µg/mL in [12] was found to be 25.7%. The GI50 (in general, the concentration giving 50% growth inhibition) at 72 h in data set [15] was more than 30 µg/mL. Moreover, the GI50 in data set [16] was more than 30 µg/mL.
`O=C1CSc2ccccc2N1Cc1cn(Cc2cccc([N+](=O)[O-])c2)nn1`: the 50% inhibitory concentration (IC50) was 34.12 µg/mL (≈ 89.5 µM) in data set [1] and 12.4 µg/mL (≈ 32.4 µM) in data set [7]. For the same compound, the Activity in data set [2] is listed as -11.78%; in data set [3] it was 13.9%; in data set [4] it was 0%; in data set [11], 16.5%; in data set [13], 15.6%; in data set [14], 20.1%. Moreover, the values for the Activity in data set [17], in data set [18] and in data set [19] were -9.71%, 0% and -3%, respectively. The 50% growth inhibitory concentration (GI50) at 48 h in [5] and in data set [10] was more than 30 µg/mL throughout. Besides, the MIC in [6] and in data set [7] was more than 30 µg/mL throughout. The inhibition at 30 µg/mL in [8] was determined as 60.2%. For the same compound, in [9], the inhibition at 10 µg/mL came to 48.9%. In addition, the inhibition at 3 µg/mL in [12] is 34.8%. In addition, the GI50 at 72 h in data set [15] is more than 30 µg/mL. Further, in data set [16], the concentration for 50% growth inhibition (GI50) is more than 30 µg/mL.
Turning to `O=C1CSc2ccccc2N1Cc1cn(Cc2ccc(Cl)cc2)nn1`, the values for the concentration for half-maximal inhibition (IC50) in data set [1] and in data set [7] were 44.29 µg/mL (≈ 119 µM) and 2.67 µg/mL (≈ 7.2 µM), respectively. The Activity in data set [2] is recorded as 51.91%; in data set [3], 35%; in [4] it was 4.35%; in [11], 40.9%; in data set [13] it was 61.5%; in data set [14], 45.1%. For the same compound, the values for the Activity in [17], in [18] and in data set [19] were 3.6%, 41.9% and 29.6%, respectively. The GI50 at 48 h in [5] was 29.9 µg/mL (≈ 80.7 µM); in data set [10], 27.3 µg/mL (≈ 73.6 µM). For the same compound, the MIC in data set [6] and in data set [7] was more than 30 µg/mL in each case. In [8], the inhibition at 30 µg/mL stood at 65.8%. For the same compound, in data set [9], the inhibition at 10 µg/mL amounted to 75.3%. In addition, the inhibition at 3 µg/mL in data set [12] amounted to 52.1%. For the same compound, the 50% growth inhibitory concentration (GI50) at 72 h in data set [15] was more than 30 µg/mL. Besides, in data set [16], the GI50 was more than 30 µg/mL.
With `O=C1CSc2ccccc2N1Cc1cn(-c2ccc([N+](=O)[O-])cc2)nn1`, the 50% inhibitory concentration (IC50) in [1] is 44.29 µg/mL (≈ 121 µM); in data set [7], more than 30 µg/mL. Further, the Activity in data set [2] was found to be 38.71%; in data set [3], 0%; in [4] it was 24.73%; in [11], 0%; in data set [13] it was 0%; in [14] it was 35.8%. Also, the Activity in [17] is given as 33.22%; in data set [18], 13.3%; in [19], -0.9%. The GI50 at 48 h in [5] and in [10] was more than 30 µg/mL throughout. In addition, the MIC in [6] and in data set [7] was more than 30 µg/mL in each case. Further, the inhibition at 30 µg/mL in data set [8] is 28.5%. In data set [9], the inhibition at 10 µg/mL was found to be 0.3%. Further, in [12], the inhibition at 3 µg/mL stood at 24.2%. Further, in data set [15], the 50% growth inhibitory concentration (GI50) at 72 h was more than 30 µg/mL. Also, in [16], the GI50 is more than 30 µg/mL.
With `O=C1CSc2ccccc2N1Cc1cn(Cc2ccc(Br)cc2)nn1`, the IC50 in data set [1] is 14.14 µg/mL (≈ 34 µM); in data set [7], more than 30 µg/mL. Besides, the Activity in data set [2] is given as 44.78%; in data set [3] it was 8.6%; in [4], -1.37%; in [11], 4%; in data set [13], 35.5%; in data set [14] it was 41.3%. Further, the Activity in data set [17] is reported as -5.96%; in data set [18], 40.4%; in [19] it was 32.9%. Also, the GI50 at 48 h in data set [5] and in data set [10] was more than 30 µg/mL each time. Also, the MIC in data set [6] and in data set [7] was more than 30 µg/mL each time. In data set [8], the inhibition at 30 µg/mL was determined as 49.8%. Moreover, in data set [9], the inhibition at 10 µg/mL is 38.4%. The inhibition at 3 µg/mL in data set [12] stood at 58%. In addition, in [15], the GI50 at 72 h is more than 30 µg/mL. Further, the concentration for 50% growth inhibition (GI50) in [16] was more than 30 µg/mL.
`O=C1CSc2ccccc2N1Cc1cn(Cc2ccccc2)nn1`: the IC50 amounted to 36.26 µg/mL (≈ 108 µM) in [1] and 9.11 µg/mL (≈ 27.1 µM) in data set [7]. Also, the Activity in data set [2] is recorded as 25.91%; in [3], 0%; in [4], -9.82%; in data set [11], -37.2%; in data set [13] it was -10.8%; in data set [14], 39.6%. Also, the Activity was -7.85% in data set [17], 0% in [18] and 8.8% in data set [19]. Also, the GI50 at 48 h in data set [5] and in data set [10] was more than 30 µg/mL in each case. Besides, the MIC in data set [6] and in data set [7] was more than 30 µg/mL in each case. In addition, the inhibition at 30 µg/mL in data set [8] amounted to 82.2%. In addition, the inhibition at 10 µg/mL in data set [9] is 59.3%. Besides, the inhibition at 3 µg/mL in [12] was -15.4%. In addition, the concentration for 50% growth inhibition (GI50) at 72 h in data set [15] was more than 30 µg/mL. Also, the 50% growth inhibitory concentration (GI50) in data set [16] was more than 30 µg/mL.
Take `O=C1CSc2ccccc2N1Cc1cn(Cc2ccccc2Cl)nn1`: the IC50 was 16.35 µg/mL (≈ 44.1 µM) in [1] and more than 30 µg/mL in data set [7]. The Activity in [2] is listed as 23.34%; in data set [3], 15.4%; in [4], -8.41%; in data set [11], 29.6%; in data set [13], 31.4%; in data set [14], 55.9%. Further, the values for the Activity in data set [17], in data set [18] and in data set [19] were 4.19%, 48.1% and 38.6%, respectively. Moreover, the GI50 at 48 h in [5] and in [10] was more than 30 µg/mL throughout. For the same compound, the MIC in [6] and in [7] was more than 30 µg/mL each time. Further, in [8], the inhibition at 30 µg/mL is 37.8%. For the same compound, the inhibition at 10 µg/mL in data set [9] is 74.9%. Also, the inhibition at 3 µg/mL in data set [12] amounted to 41.9%. In addition, the GI50 at 72 h in data set [15] is more than 30 µg/mL. Besides, the GI50 in [16] is more than 30 µg/mL.
As to `Cc1cc(C(C)(C)C)c(O)c(C(C)(C)C)c1` [BUTYLATED HYDROXYTOLUENE], in data set [1], the IC50 worked out at 16.47 µg/mL (≈ 74.7 µM).
Take `CC(=O)O[C@H]1C(=O)[C@@]2(C)[C@H]([C@H](OC(=O)c3ccccc3)[C@]3(O)C[C@H](OC(=O)[C@H](O)[C@@H](NC(=O)c4ccccc4)c4ccccc4)C(C)=C1C3(C)C)[C@]1(OC(C)=O)CO[C@@H]1C[C@@H]2O` [PACLITAXEL]: the GI50 at 48 h in data set [5] was less than 0.0023 µg/mL; in data set [10], 0.0023 µg/mL (≈ 0.00269 µM). In [6], the MIC was 0.039 µg/mL (≈ 0.0457 µM). Also, in data set [15], the 50% growth inhibitory concentration (GI50) at 72 h was 0.14 µg/mL (≈ 0.164 µM).
